Reference: patent US8119635B2, “Diazabicyclic central nervous system active agents” (Abbott Laboratories, priority 2000, dated 2012)
Structures can show the parent of a compound that is named as a salt. Where two headings read alike, the source gives them in different places.

Columns and labels:
[1] = target: T1, neuronal nicotinic acetylcholine receptors (Rattus norvegicus, UniProt P09483+P12390); assay: Binding of [3H]-cytisine to neuronal nicotinic acetylcholine receptors, crude synaptic membranes from whole rat brain
T1 construct: crude synaptic membrane preparations from whole rat brain; from tissue; host or cells: whole rat brain, crude synaptic membranes
Protocol: The In Vitro protocols for determination of nicotinic acetylcholine channel receptor binding potencies of ligands were determined as follows.
Washed membranes were stored at −80° C. prior to use. Frozen aliquots were slowly thawed and resuspended in 20 volumes of buffer (containing: 120 mM NaCl, 5 mM KCl, 2 mM MgCl2, 2 mM CaCl2 and 50 mM Tris-Cl, pH 7.4 @[…]). After centrifuging at 20,000×g for 15 minutes, the pellets were resuspended in 30 volumes of buffer.
The test compounds were dissolved in water to make 10 mM stock solutions. Each solution was then diluted (1:100) with buffer (as above) and further taken through seven serial log dilutions to produce test solutions from 10^−5 to 10^−11 M.
Samples were incubated for 60 minutes at 4° C., then rapidly filtered through Whatman GF/B filters presoaked in 0.5% polyethyleneimine using 3×4 mL of ice-cold buffer. The filters are counted in 4 mL of Ecolume® (ICN). Nonspecific binding was determined in the presence of 10 μM (−)-nicotine and values were expressed as a percentage of total binding. IC50 values were determined with the RS-1 (BBN) nonlinear least squares curve-fitting program and IC50 values were converted to Ki values using the Cheng and Prusoff correction (Ki=IC50/(1+[ligand]/Kd of ligand).

Male Sprague-Dawley rats = assay: Formalin test (analgesia); assay type: in vivo; settings: Rattus norvegicus, ip, intraperitoneally 5 minutes before injection of 50 μL 5% formalin into rear paw, nocifensive behaviors, read-out: (MED) minimally effective dose, formalin test
Protocol: Another in vivo protocol utilized to determine the effectiveness of nicotinic acetylcholine receptor ligands as analgesic agents was the formalin test.
Male Sprague-Dawley rats (Charles River, Portage, Mich.) weighing 200 to 400 grams were used for all experiments. After a 20 minute period of acclimation to individual cages, 50 μL of a 5% formalin solution was injected subcutaneous into the dorsal aspect of one of the rear paws and the rats were then returned to the clear observation cages suspended above mirror panels. […] Phase 1 of the formalin test was defined as the period of time immediately after injection of formalin until 10 minutes after the formalin injection (i.e., 0-10 minutes after formalin). Phase 2 was defined as the 20 minute period from 30 to 50 minutes after formalin injection. The investigator recorded nocifensive behaviors in the injected paw of four animals during the session by observing each animal for one 15 second observation period during each 1 minute interval. Nocifensive behaviors recorded included flinching, licking or biting the injected paw. In dose-response studies, the test compound (or saline) was administered intraperitoneally 5 minutes before injection of formalin.

mice = assay: Mouse hot plate paradigm (analgesia); assay type: in vivo; settings: ip, 0.5 h, intraperitoneal, dosed 30 minutes prior to testing, hot plate 55° C., latency until the tenth jump, read-out: (MED) minimally effective dose, mouse hot plate
Protocol: An in vivo protocol was utilized to determine the effectiveness of nicotinic acetylcholine receptor ligands as analgesic agents in the mouse hot plate paradigm.
Separate groups of mice, (n=8/group) were utilized for each dose group. All drugs were administered by the intraperitoneal route of administration. Test drugs were dissolved in water to make a 6.2 mM stock solution. Animals were dosed with this solution (10 mL/kg body weight) for a 62 micromol/kg dose. Lower doses were administered similarly, following serial dilution of the stock solution in half-log increments. Animals were dosed 30 minutes prior to testing in the hot plate. The hot-plate utilized was an automated analgesia monitor (Model #AHP16AN, Omnitech Electronics, Inc. of Columbus, Ohio). The temperature of the hot plate was maintained at 55° C. and a cut-off time of 180 seconds was utilized. Latency until the tenth jump was recorded as the dependent measure. An increase in the tenth jump latency relative to the control was considered an effect.

T1 sequence (P09483 31-630): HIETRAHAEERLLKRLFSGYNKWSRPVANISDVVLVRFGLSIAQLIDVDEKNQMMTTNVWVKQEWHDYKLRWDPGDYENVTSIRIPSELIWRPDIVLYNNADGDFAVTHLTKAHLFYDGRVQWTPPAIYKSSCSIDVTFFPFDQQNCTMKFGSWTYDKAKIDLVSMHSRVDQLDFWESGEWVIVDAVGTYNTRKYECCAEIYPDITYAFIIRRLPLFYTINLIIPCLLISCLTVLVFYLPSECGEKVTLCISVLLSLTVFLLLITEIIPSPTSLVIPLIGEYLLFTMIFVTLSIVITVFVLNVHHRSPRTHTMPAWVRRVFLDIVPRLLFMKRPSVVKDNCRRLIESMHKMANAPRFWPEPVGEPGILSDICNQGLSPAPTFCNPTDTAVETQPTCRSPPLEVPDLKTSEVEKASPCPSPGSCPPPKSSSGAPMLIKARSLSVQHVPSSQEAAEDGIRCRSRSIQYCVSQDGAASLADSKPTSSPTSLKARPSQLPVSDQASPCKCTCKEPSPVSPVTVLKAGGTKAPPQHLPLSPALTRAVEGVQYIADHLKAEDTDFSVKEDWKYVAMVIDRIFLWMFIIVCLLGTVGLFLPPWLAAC
T1 sequence (P12390 25-500): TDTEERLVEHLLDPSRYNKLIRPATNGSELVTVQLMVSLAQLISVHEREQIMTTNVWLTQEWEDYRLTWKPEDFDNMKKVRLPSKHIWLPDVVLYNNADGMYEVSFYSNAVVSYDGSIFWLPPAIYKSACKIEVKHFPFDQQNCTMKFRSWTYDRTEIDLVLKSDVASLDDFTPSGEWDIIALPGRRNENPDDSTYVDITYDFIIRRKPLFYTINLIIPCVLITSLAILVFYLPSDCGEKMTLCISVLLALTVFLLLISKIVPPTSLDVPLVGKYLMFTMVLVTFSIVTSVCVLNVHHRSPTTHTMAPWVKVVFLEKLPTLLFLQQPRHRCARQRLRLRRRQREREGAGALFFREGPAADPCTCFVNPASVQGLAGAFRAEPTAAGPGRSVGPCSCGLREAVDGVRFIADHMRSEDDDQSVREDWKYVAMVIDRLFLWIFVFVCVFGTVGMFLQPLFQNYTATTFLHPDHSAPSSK

Structure (SMILES) | Ki [1] [nM] | minimal effective dose (Male Sprague-Dawley rats) [µmol/kg] | minimal effective dose (mice) [µmol/kg] | melting point | Ki ([1]; [3H]-CYT 1.25 nM, whole rat brain membranes, 60 minutes at 4° C., IC50 converted to Ki by Cheng and Prusoff correction, read-out: Average Ki) [nM]
Clc1ccc(N2C[C@H]3CCN[C@H]3C2)cn1 (relative stereo) [Example 13, cis-5-(6-chloro-3-pyridinyl)octahydropyrrolo[3,4-b]pyrrole hydrochloride] | 1.5 | 0.62 | 6.2 | – | –
Cl.Cl.c1ccc2ncc(N3C[C@H]4CNC[C@H]4C3)cc2c1 [Example 5, cis-2-(3-quinolinyl)octahydropyrrolo[3,4-c]pyrrole dihydrochloride] | 1.7 | – | – | > 260 °C | –
COc1cncc(N2C[C@H]3CCN[C@H]3C2)c1 [Example 29, (3aR,6aR)-5-(5-methoxy-3-pyridinyl)octahydropyrrolo[3,4-b]pyrrole dihydrochloride] | 0.35 | 6.2 | 19 | – | –
c1cncc(N2C[C@H]3CCCN[C@H]3C2)c1 (relative stereo) [Example 23, cis-6-(3-pyridinyl)octahydro-1H-pyrrolo[3,4-b]pyridine dihydrochloride] | 4.1 | 0.62 | 62 | – | –
Cc1cc(N2C[C@H]3CNC[C@H]3C2)cnc1Cl [Example 11, cis-2-(6-chloro-5-methyl-3-pyridinyl)octahydropyrrolo[3,4-c]pyrrole dihydrochloride] | 0.04 | – | 6.2 | – | –
COc1cc(N2C[C@H]3CNC[C@H]3C2)cnc1Cl [Example 10, cis-2-(6-chloro-5-methoxy-3-pyridinyl)octahydropyrrolo[3,4-c]pyrrole dihydrochloride] | 0.03 | 1.9 | 6.2 | – | –
CN1C[C@@H]2CN(c3cccnc3)C[C@@H]2C1.Cl [Example 2, cis-2-methyl-5-(3-pyridinyl)octahydropyrrolo[3,4-c]pyrrole hydrochloride] | 26 | – | – | 207 to 209 °C | –
c1cncc(N2C[C@H]3CCN[C@H]3C2)c1 [Example 28, (3aR,6aR)-5-(3-pyridinyl)octahydropyrrolo[3,4-b]pyrrole dihydrochloride] | – | 1.9 | 6.2 | – | 0.34
Cc1cc(N2C[C@@H]3CCN[C@@H]3C2)cnc1Cl [Example 26, (3aS,6aS)-5-(6-chloro-5-methyl-3-pyridinyl)octahydropyrrolo[3,4-b]pyrrole hydrochloride] | 0.62 | – | 19 | – | –
Cl.Clc1ccc(N2C[C@H]3CNC[C@H]3C2)cn1 [Example 3, cis-2-(6-chloro-3-pyridinyl)octahydropyrrolo[3,4-c]pyrrole hydrochloride] | 0.2 | – | 6.2 | 230 to 236 °C (dec.) | –
CCOc1cncc(N2C[C@H]3CNC[C@H]3C2)c1 [Example 8, cis-2-(5-ethoxy-3-pyridinyl)octahydropyrrolo[3,4-c]pyrrole dihydrochloride] | 0.04 | – | 6.2 | 226 to 227 °C | –
Cl.Cl.FC(F)(F)COc1cncc(N2C[C@H]3CNC[C@H]3C2)c1 [Example 12, cis-2-[5-(2,2,2-trifluoroethoxy)-3-pyridinyl]octahydropyrrolo[3,4-c]pyrrole dihydrochloride] | 0.05 | – | 62 | 233 to 234 °C (dec.) | –
c1cncc(N2CC[C@H]3CN[C@H]3C2)c1 (relative stereo) [Example 33, (cis)-3-(3-pyridinyl)-3,8-diazabicyclo[4.2.0]octane tris(4-methylbenzenesulfonate)] | 0.02 | 0.62 | 1.9 | – | –
CCCOc1cncc(N2C[C@H]3CNC[C@H]3C2)c1 [Example 9, cis-2-(5-propoxy-3-pyridinyl)octahydropyrrolo[3,4-c]pyrrole semi(fumarate)] | 0.04 | – | 19 | – | –
Clc1ccc(N2C[C@H]3CCCN[C@H]3C2)cn1 (relative stereo) [Example 22, cis-6-(6-chloro-3-pyridinyl)octahydro-1H-pyrrolo[3,4-b]pyridine dihydrochloride] | 11 | 1.9 | 19 | – | –
Cl.Cl.c1cncc(N2C[C@H]3CNC[C@H]3C2)c1 [Example 1, cis-2-(3-pyridinyl)octahydropyrrolo[3,4-c]pyrrole dihydrochloride] | 0.12 | 0.62 | 19 | 250 to 252 °C (dec.) | –
Clc1ccc(N2C[C@@H]3CCN[C@@H]3C2)cn1 [Example 15, (3aS,6aS)-5-(6-chloro-3-pyridinyl)octahydropyrrolo[3,4-b]pyrrole dihydrochloride] | 6.3 | > 6.2 | 19 | – | –
Clc1ccc(N2C[C@H]3CCN[C@H]3C2)cn1 [Example 14, (3aR,6aR)-5-(6-chloro-3-pyridinyl)octahydropyrrolo[3,4-b]pyrrole dihydrochloride] | 1.1 | 0.62 | 1.9 | – | –
Clc1cc(N2C[C@H]3CCN[C@H]3C2)cnc1Cl [Example 24, (3aR,6aR)-5-(5,6-dichloro-3-pyridinyl)octahydropyrrolo[3,4-b]pyrrole hydrochloride] | 0.16 | 6.2 | 6.2 | – | –
COc1cncc(N2C[C@H]3CNC[C@H]3C2)c1 [Example 7, cis-2-(5-methoxy-3-pyridinyl)octahydropyrrolo[3,4-c]pyrrole dihydrochloride] | 0.08 | 6.2 | 19 | – | –
Cc1cc(N2C[C@H]3CCN[C@H]3C2)cnc1Cl [Example 27, (3aR,6aR)-5-(6-chloro-5-methyl-3-pyridinyl)octahydropyrrolo[3,4-b]pyrrole hydrochloride] | 0.1 | – | 1.9 | – | –
C#Cc1cncc(N2C[C@H]3CCN[C@H]3C2)c1 [Example 35, (3aR,6aR)-5-(5-ethynyl-3-pyridinyl)octahydropyrrolo[3,4-b]pyrrole hydrochloride dihydrochloride] | 0.13 | 1.9 | – | – | –
c1cncc(N2C[C@H]3CNC[C@H]32)c1 [Example 52, (1R,5S)-6-(3-pyridinyl)-3,6-diazabicyclo[3.2.0]heptane fumarate] | 1.3 | 19 | – | – | –
